The source made the active and inactive calls. No cut-off for these calls is given here.
Columns and labels:
BaF3 [1] = assay: Cytotoxicity against mouse BAF3 cells incubated for 72 hrs by resazurin dye based assay; format: cell-based; conditions: BaF3, 72 h
[2] = tested on: Epidermal growth factor receptor (Homo sapiens), P00533 [L858R,T790M,C797S]; assay: (§1) Inhibition of recombinant human C-terminal His-tagged/N-terminal GST-tagged EGFR (668 to 1210 residues) T790M/L858R/C797S mutant expressed in baculovirus expression system using poly (Glu,Tyr) 4:1 as substrate incubated for 1 hr in presence of ATP by ELISA
[3] = target: Epidermal growth factor receptor (Homo sapiens, UniProt P00533, C797S/L858R/T790M); assay: as §1
[4] = target: Tyrosine-protein kinase Blk (Homo sapiens) (UniProt P51451); assay: Inhibition of BLK (unknown origin) at 100 nM relative to control
[5] = target: Vascular endothelial growth factor receptor 3 (Homo sapiens) (UniProt P35916); assay: Inhibition of VEGFR3 (unknown origin) at 100 nM relative to control
[6] = target: Epidermal growth factor receptor (Homo sapiens, UniProt P00533, C797S/EX19DEL/T790M); assay: Inhibition of EGFR 19D/T790M/C797S mutant (unknown origin) using poly (Glu,Tyr) 4:1 as substrate incubated for 1 hr in presence of ATP by ELISA
[7] = target: Hepatocyte growth factor receptor (Homo sapiens) (UniProt P08581); assay: Inhibition of MET (unknown origin) at 100 nM relative to control
[8] = target: Fibroblast growth factor receptor 4 (Homo sapiens) (UniProt P22455); assay: Inhibition of FGFR4 (unknown origin) at 100 nM relative to control
[9] = target: Fibroblast growth factor receptor 1 (Homo sapiens) (UniProt P11362); assay: Inhibition of FGFR1 (unknown origin) at 100 nM relative to control
[10] = target: Receptor-type tyrosine-protein kinase FLT3 (Homo sapiens) (UniProt P36888); assay: Inhibition of FLT3 (unknown origin) at 100 nM relative to control
[11] = target: Focal adhesion kinase 1 (Homo sapiens) (UniProt Q05397); assay: Inhibition of FAK (unknown origin) at 100 nM relative to control
[12] = target: Tyrosine-protein kinase TXK (Homo sapiens) (UniProt P42681); assay: Inhibition of Txk (unknown origin) at 100 nM relative to control
[13] = Clearance in rat at 1 mg/kg, iv measured for 0.083 to 24 hrs by LC-MS/MS analysis; format: ADME, organism-based; conditions: in vivo
[14] = target: Tyrosine-protein kinase BTK (Homo sapiens) (UniProt Q06187); assay: Inhibition of BTK (unknown origin) at 100 nM relative to control
NCI-H1975 = assay: Antiproliferative activity human NCI-H1975 cells incubated for 72 hrs by SRB assay; format: functional, cell-based; conditions: NCI-H1975, 72 h
[15] = Aqueous solubility of the compound in PBS buffer at pH 6.8 by UV-Vis spectrophotometric method; format: physicochemical
[16] = Oral bioavailability in rat at 10 mg/kg measured for 0.083 to 24 hrs by LC-MS/MS analysis; format: ADME, organism-based; conditions: in vivo
[17] = target: Tyrosine-protein kinase JAK3 (Homo sapiens) (UniProt P52333); assay: Inhibition of JAK3 (unknown origin) at 100 nM relative to control
[18] = tested on: Epidermal growth factor receptor (Homo sapiens), P00533 [L858R,T790M,C797S]; assay: Inhibition of EGFR L858R/T790M/C797S mutant (unknown origin) transfected in mouse BAF3 cells assessed as inhibition of EGF-induced EGFR phosphorylation by Western blot analysis; format: cell-based
[19] = target: Insulin-like growth factor 1 receptor (Homo sapiens) (UniProt P08069); assay: Inhibition of IGF1R (unknown origin) at 100 nM relative to control
[20] = target: Receptor tyrosine-protein kinase erbB-2 (Homo sapiens) (UniProt P04626); assay: Inhibition of ErbB2 (unknown origin) at 100 nM relative to control
[21] = target: NT-3 growth factor receptor (Homo sapiens) (UniProt Q16288); assay: Inhibition of TrkC (unknown origin) at 100 nM relative to control
A-431 = assay: Antiproliferative activity human A431 cells incubated for 72 hrs by SRB assay; format: functional, cell-based; conditions: A-431, 72 h
[22] = target: Tyrosine-protein kinase JAK1 (Homo sapiens) (UniProt P23458); assay: Inhibition of JAK1 (unknown origin) at 100 nM relative to control
[23] = target: Ephrin type-A receptor 2 (Homo sapiens) (UniProt P29317); assay: Inhibition of EPHA2 (unknown origin) at 100 nM relative to control
[24] = target: Insulin receptor (Homo sapiens) (UniProt P06213); assay: Inhibition of IR (unknown origin) at 100 nM relative to control
[25] = target: Tyrosine-protein kinase Yes (Homo sapiens) (UniProt P07947); assay: Inhibition of YES (unknown origin) at 100 nM relative to control
[26] = target: Macrophage colony-stimulating factor 1 receptor (Homo sapiens) (UniProt P07333); assay: Inhibition of CSF1R (unknown origin) at 100 nM relative to control
[27] = target: High affinity nerve growth factor receptor (Homo sapiens) (UniProt P04629); assay: Inhibition of TrkA (unknown origin) at 100 nM relative to control
[28] = target: Tyrosine-protein kinase receptor UFO (Homo sapiens) (UniProt P30530); assay: Inhibition of AXL (unknown origin) at 100 nM relative to control
BaF3 [29] = assay: Antiproliferative activity against mouse BAF3 cells transfected with EGFR 19D/T790M/C797S mutant (unknown origin) incubated for 72 hrs by resazurin dye based assay; format: functional, cell-based; conditions: BaF3, 72 h
[30] = target: Platelet-derived growth factor receptor alpha (Homo sapiens) (UniProt P16234); assay: Inhibition of PDGFRalpha (unknown origin) at 100 nM relative to control
[31] = target: Fibroblast growth factor receptor 2 (Homo sapiens) (UniProt P21802); assay: Inhibition of FGFR2 (unknown origin) at 100 nM relative to control
[32] = target: Tyrosine-protein kinase ABL1 (Homo sapiens) (UniProt P00519); assay: Inhibition of Abl (unknown origin) at 100 nM relative to control
[33] = target: Proto-oncogene tyrosine-protein kinase receptor Ret (Homo sapiens) (UniProt P07949); assay: Inhibition of RET (unknown origin) at 100 nM relative to control
[34] = target: Vascular endothelial growth factor receptor 1 (Homo sapiens) (UniProt P17948); assay: Inhibition of VEGFR1 (unknown origin) at 100 nM relative to control
[35] = target: Mast/stem cell growth factor receptor Kit (Homo sapiens) (UniProt P10721); assay: Inhibition of cKIT (unknown origin) at 100 nM relative to control
[36] = target: Receptor tyrosine-protein kinase erbB-4 (Homo sapiens) (UniProt Q15303); assay: Inhibition of ErbB4 (unknown origin) at 100 nM relative to control
[37] = target: Proto-oncogene tyrosine-protein kinase Src (Homo sapiens) (UniProt P12931); assay: Inhibition of Src (unknown origin) at 100 nM relative to control
[38] = tested on: Epidermal growth factor receptor (Homo sapiens), P00533 [L858R,T790M,C797S]; assay: Inhibition of recombinant human C-terminal His-tagged/N-terminal GST-tagged EGFR (668 to 1210 residues) T790M/L858R/C797S mutant expressed in baculovirus expression system at 100 nM using poly (Glu,Tyr) 4:1 as substrate incubated for 1 hr in presence of ATP by ELISA relative to control
[39] = target: Inhibitor of NF-kappa-B kinase (IKK) (Homo sapiens) (UniProt O14920+O15111+Q9Y6K9); assay: Inhibition of IKK (unknown origin) at 100 nM relative to control; format: protein-complex assay
[40] = target: Ephrin type-B receptor 2 (Homo sapiens) (UniProt P29323); assay: Inhibition of EPHB2 (unknown origin) at 100 nM relative to control
[41] = target: ALK tyrosine kinase receptor (Homo sapiens) (UniProt Q9UM73); assay: Inhibition of ALK (unknown origin) at 100 nM relative to control
[42] = target: Fibroblast growth factor receptor 3 (Homo sapiens) (UniProt P22607); assay: Inhibition of FGFR3 (unknown origin) at 100 nM relative to control
[43] = target: Vascular endothelial growth factor receptor 2 (Homo sapiens) (UniProt P35968); assay: Inhibition of VEGFR2 (unknown origin) at 100 nM relative to control
[44] = target: Cytoplasmic tyrosine-protein kinase BMX (Homo sapiens) (UniProt P51813); assay: Inhibition of BMX (unknown origin) at 100 nM relative to control
[45] = tested on: Epidermal growth factor receptor (Homo sapiens), P00533 [L858R,T790M,C797S]; assay: Inhibition of EGFR L858R/T790M/C797S mutant (unknown origin) transfected in mouse BAF3 cells assessed as inhibition of EGF-induced EGFR phosphorylation at 0.1 uM by Western blot analysis; format: cell-based
[46] = target: BDNF/NT-3 growth factors receptor (Homo sapiens) (UniProt Q16620); assay: Inhibition of TrkB (unknown origin) at 100 nM relative to control
[47] = target: Platelet-derived growth factor receptor beta (Homo sapiens) (UniProt P09619); assay: Inhibition of PDGFRbeta (unknown origin) at 100 nM relative to control
BaF3 [48] = assay: Antiproliferative activity against mouse BAF3 cells transfected with EGFR L858R/T790M/C797S mutant (unknown origin) incubated for 72 hrs by resazurin dye based assay; format: functional, cell-based; conditions: BaF3, 72 h
[49] = tested on: Epidermal growth factor receptor (Homo sapiens), P00533 [L858R,T790M]; assay: Inhibition of human EGFR T790M/L858R mutant using poly (Glu,Tyr) 4:1 as substrate incubated for 1 hr in presence of ATP by ELISA

Epidermal growth factor receptor (Homo sapiens), P00533 [L858R,T790M,C797S], sequence (P00533 whole entry T790M/C797S/L858R, the tested form may be a part): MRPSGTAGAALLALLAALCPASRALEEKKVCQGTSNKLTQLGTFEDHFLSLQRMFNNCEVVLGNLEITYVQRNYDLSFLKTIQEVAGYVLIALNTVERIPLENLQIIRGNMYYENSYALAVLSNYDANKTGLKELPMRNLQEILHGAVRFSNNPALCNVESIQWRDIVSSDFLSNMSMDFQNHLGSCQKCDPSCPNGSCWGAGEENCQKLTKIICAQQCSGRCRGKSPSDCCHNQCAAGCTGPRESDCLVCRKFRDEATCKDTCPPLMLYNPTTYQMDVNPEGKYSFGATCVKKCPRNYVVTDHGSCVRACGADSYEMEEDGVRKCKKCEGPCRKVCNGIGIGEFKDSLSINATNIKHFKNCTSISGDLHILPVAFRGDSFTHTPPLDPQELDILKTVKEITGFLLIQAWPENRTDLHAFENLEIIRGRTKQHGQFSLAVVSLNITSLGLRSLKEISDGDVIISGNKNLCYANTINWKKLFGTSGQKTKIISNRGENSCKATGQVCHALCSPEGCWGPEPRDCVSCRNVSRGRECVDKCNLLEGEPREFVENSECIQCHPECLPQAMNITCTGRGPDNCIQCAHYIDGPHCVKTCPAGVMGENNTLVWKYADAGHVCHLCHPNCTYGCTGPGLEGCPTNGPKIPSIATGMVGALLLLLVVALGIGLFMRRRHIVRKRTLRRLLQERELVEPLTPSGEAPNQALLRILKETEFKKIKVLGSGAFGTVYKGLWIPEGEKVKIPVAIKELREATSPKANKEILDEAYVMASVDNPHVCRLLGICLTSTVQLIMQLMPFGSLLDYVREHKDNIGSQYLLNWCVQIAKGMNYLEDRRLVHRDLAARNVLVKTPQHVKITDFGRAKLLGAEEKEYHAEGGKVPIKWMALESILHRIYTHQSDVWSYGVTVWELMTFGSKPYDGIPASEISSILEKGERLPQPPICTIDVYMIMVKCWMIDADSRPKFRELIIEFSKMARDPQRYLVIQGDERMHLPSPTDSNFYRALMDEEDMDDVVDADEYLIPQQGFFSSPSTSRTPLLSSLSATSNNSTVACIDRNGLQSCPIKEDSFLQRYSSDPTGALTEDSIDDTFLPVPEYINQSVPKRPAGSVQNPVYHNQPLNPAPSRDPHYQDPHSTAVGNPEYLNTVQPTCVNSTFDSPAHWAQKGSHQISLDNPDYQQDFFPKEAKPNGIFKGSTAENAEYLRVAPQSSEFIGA
Epidermal growth factor receptor (Homo sapiens, UniProt P00533, C797S/L858R/T790M), sequence (P00533 whole entry T790M/C797S/L858R): as the sequence (P00533 whole entry T790M/C797S/L858R, the tested form may be a part) above
Vascular endothelial growth factor receptor 3 (Homo sapiens), sequence (P35916 whole entry): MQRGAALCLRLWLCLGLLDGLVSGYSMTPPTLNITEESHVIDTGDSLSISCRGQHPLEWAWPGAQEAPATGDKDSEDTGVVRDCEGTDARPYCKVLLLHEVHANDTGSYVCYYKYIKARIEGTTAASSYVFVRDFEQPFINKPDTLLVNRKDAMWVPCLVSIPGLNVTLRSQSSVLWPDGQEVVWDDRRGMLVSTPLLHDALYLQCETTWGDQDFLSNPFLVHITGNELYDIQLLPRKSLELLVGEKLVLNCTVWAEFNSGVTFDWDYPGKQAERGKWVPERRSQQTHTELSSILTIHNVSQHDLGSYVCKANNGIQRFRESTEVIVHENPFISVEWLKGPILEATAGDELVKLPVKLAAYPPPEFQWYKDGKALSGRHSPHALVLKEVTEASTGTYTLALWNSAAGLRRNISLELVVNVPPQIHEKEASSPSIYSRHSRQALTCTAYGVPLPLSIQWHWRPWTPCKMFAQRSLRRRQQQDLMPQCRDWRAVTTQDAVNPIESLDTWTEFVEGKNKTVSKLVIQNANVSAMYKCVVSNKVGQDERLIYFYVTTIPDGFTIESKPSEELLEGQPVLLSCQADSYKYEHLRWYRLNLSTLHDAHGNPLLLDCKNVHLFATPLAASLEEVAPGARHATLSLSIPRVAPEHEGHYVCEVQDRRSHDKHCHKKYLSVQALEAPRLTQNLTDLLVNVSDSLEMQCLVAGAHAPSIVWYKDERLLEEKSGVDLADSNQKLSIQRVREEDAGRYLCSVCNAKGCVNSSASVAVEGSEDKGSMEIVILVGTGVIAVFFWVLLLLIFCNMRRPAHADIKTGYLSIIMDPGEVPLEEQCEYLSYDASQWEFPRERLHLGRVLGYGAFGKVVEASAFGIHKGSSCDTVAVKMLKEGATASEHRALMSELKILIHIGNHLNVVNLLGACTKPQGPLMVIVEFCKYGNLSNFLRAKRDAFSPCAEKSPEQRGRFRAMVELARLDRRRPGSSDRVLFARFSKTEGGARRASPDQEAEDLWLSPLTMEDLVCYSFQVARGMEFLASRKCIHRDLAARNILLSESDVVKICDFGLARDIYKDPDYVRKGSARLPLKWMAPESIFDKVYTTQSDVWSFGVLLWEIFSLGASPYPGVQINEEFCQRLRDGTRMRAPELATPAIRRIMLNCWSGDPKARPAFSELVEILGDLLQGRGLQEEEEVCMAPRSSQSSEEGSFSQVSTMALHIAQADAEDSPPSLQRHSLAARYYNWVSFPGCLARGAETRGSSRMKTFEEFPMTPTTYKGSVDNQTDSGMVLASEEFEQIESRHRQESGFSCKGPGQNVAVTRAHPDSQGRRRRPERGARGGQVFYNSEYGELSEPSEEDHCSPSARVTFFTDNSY
High affinity nerve growth factor receptor (Homo sapiens), sequence (P04629 33-796 limits assumed): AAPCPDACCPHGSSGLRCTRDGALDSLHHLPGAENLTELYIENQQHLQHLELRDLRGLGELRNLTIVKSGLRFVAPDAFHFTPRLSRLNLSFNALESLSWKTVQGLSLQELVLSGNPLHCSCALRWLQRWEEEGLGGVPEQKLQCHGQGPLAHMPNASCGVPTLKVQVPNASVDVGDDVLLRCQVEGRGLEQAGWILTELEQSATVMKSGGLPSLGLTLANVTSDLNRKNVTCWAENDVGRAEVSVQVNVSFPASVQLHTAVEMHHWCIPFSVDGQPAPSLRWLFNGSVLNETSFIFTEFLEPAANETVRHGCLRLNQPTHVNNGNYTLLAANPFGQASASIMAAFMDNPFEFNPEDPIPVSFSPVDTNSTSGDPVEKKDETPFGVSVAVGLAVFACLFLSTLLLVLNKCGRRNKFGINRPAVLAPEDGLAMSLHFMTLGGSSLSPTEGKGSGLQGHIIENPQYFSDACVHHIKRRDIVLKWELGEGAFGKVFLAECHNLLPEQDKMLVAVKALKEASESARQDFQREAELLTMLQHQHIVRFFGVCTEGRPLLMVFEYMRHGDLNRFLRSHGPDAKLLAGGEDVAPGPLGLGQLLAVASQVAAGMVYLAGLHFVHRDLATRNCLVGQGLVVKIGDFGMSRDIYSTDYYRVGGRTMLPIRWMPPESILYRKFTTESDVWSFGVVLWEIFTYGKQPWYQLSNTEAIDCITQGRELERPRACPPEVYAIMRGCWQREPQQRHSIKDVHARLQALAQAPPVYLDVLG
Tyrosine-protein kinase Blk (Homo sapiens), sequence (P51451 2-505 limits assumed): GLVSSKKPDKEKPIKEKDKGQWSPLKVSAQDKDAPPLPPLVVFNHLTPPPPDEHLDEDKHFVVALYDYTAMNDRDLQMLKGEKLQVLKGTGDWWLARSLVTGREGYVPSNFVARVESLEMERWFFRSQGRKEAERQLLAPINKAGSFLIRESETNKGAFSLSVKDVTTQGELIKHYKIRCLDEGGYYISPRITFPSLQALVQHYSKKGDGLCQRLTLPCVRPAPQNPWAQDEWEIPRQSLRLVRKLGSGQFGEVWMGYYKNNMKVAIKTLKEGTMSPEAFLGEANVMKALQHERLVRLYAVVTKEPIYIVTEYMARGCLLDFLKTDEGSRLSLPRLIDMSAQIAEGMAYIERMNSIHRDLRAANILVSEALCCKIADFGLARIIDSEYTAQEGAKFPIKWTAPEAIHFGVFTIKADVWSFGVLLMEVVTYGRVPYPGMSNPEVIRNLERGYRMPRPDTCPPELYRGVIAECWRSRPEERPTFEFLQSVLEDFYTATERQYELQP

## COc1cc(N2CCC(N3CCN(C)CC3)CC2)ccc1Nc1ncc(Cl)c(Nc2ccccc2P(C)(C)=O)n1 [BRIGATINIB]
BaF3 [1]
  IC50: 7.31 µM

## COc1cc2c(Nc3cc(NC(=O)CC4Cc5ccccc5C4)ccc3F)ncnc2cc1OCC1CCN(C)CC1
[2]
  inhibition: inactive

## COc1cc2c(Nc3ccc(NC(=O)Cc4ccccc4)cc3F)ncnc2cc1OCC1CCN(C)CC1
[2]
  inhibition: inactive

## COc1cc2c(Nc3ccc(NC(=O)C(c4ccccc4)C(C)C)cc3F)ncnc2cc1OCC1CCN(C)CC1 (centres undefined)
[2]
  inhibition: inactive

## COc1cc2c(Nc3cc(NC(=O)C(c4ccccc4)N4Cc5ccccc5C4=O)ccc3F)ncnc2cc1OCC1CCN(C)CC1 (centres undefined)
[3]
  IC50: 0.0371 µM

## COc1cc2c(Nc3ccc(NC(=O)C(c4cc(F)ccc4F)N4Cc5ccccc5C4=O)cc3F)ncnc2cc1OCC1CCN(C)CC1 (centres undefined)
[4]
  inhibition: > 90%
[5]
  inhibition: < 25%
[6]
  IC50: 0.331 µM
[7]
  inhibition: < 25%
[8]
  inhibition: < 25%
[9]
  inhibition: < 25%
[10]
  inhibition: < 25%
[11]
  inhibition: < 25%
[12]
  inhibition: 50 to 75%
[13]
  clearance: 16 mL/min/kg
[14]
  inhibition: 50 to 75%
NCI-H1975
  IC50: 3.03 µM
[15]
  solubility: Insoluble
[16]
  bioavailability: 0.55%
[17]
  inhibition: < 25%
[18]
  inhibition: Dose-dependent effect
[19]
  inhibition: < 25%
[20]
  inhibition: > 90%
[21]
  inhibition: < 25%
A-431
  IC50: 1.24 µM
[22]
  inhibition: < 25%
[3]
  IC50: 0.0022 µM
[23]
  inhibition: < 25%
[24]
  inhibition: < 25%
[25]
  inhibition: < 25%
[26]
  inhibition: < 25%
[27]
  inhibition: < 25%
[28]
  inhibition: 50 to 75%
BaF3 [29]
  IC50: 3.54 µM
[30]
  inhibition: 50 to 75%
[31]
  inhibition: < 25%
[32]
  inhibition: 50 to 75%
[33]
  inhibition: < 25%
[34]
  inhibition: < 25%
[35]
  inhibition: < 25%
[36]
  inhibition: > 90%
[37]
  inhibition: 50 to 75%
[38]
  inhibition: > 90%
[39]
  inhibition: < 25%
[40]
  inhibition: < 25%
[41]
  inhibition: < 25%
[42]
  inhibition: < 25%
[43]
  inhibition: 50 to 75%
[44]
  inhibition: < 25%
[45]
  inhibition: Active
[46]
  inhibition: < 25%
[47]
  inhibition: 50 to 75%
BaF3 [1]
  IC50: 7.68 µM
BaF3 [48]
  IC50: 0.64 µM

## COc1cc2ncnc(Nc3ccc(NC(=O)C(c4ccccc4)N4Cc5ccccc5C4=O)cc3F)c2cc1OCN1CCOCC1 (centres undefined)
[2]
  inhibition: Active

## COc1cc2nc(N)nc(Nc3ccc(NC(=O)C(c4ccccc4)N4Cc5ccccc5C4=O)cc3F)c2cc1OC (centres undefined)
[2]
  inhibition: inactive
[49]
  inhibition: inactive

## O=C(Nc1nccs1)C(c1cc(F)ccc1O)N1Cc2ccccc2C1=O (centres undefined)
BaF3 [1]
  IC50: > 10 µM

## COc1cc2c(Nc3ccc(NC(=O)C(C)c4ccccc4)cc3F)ncnc2cc1OCC1CCN(C)CC1 (centres undefined)
[2]
  inhibition: inactive
